One may read the Kd as the free concentration of one partner at which half of the binding sites on the other are occupied at equilibrium, for simple one-to-one binding.

This note sets out measurements from US20250296959A1, “B7-H3 TARGETING PEPTIDES AND CONSTRUCTS THEREOF” (Mariana Oncology Inc., priority 2024, published 2025).

Starred links: 1 amine or outer side, 2 acyl side, 3 side chain; linkers in the order of their positions; H or OH if unused. Positions of bridges follow the written chain, without caps; N, C: chain ends. Non-standard residues stand in square brackets, D forms with d. Residues, ends and D or L forms follow the SMILES beside them. Groups on a side chain read outwards from the residue. *: point of attachment. Ala(piperidin-4-yl) = O=C([C@H](CC1CCN([*:3])CC1)N[*:1])[*:2]; DOTA = O=C(O)CN1CCN(CC(=O)O)CCN(CC(=O)*)CCN(CC(=O)O)CC1; Phe(4-NHCONH2) = NC(=O)Nc1ccc(C[C@H](N)C(=O)O)cc1; Trp(5-F) = N[C@@H](Cc1c[nH]c2ccc(F)cc12)C(=O)O; X1 = C[C@@H](c1ccccc1)[C@H](N[*:1])C(=O)[*:2]; Trp(1-Me) = Cn1cc(C[C@H](N)C(=O)O)c2ccccc21; C16 diacid = O=C(O)CCCCCCCCCCCCCCC(=O)*; γGlu = O=C(O)[C@H](CCC(=O)[*:2])N[*:1]; Ala(4-THP) = N[C@@H](CC1CCOCC1)C(=O)O; Val(3-OH) = CC(C)(O)[C@H](N)C(=O)O; Hyp = O=C(O)[C@@H]1C[C@@H](O)CN1; aIle = CC[C@@H](C)[C@H](N)C(=O)O; hCha = N[C@@H](CCC1CCCCC1)C(=O)O; Tle = CC(C)(C)[C@H](N)C(=O)O; hLeu = CC(C)CC[C@H](N)C(=O)O; AEA = NCCOCC(=O)O Some results are limits rather than exact numbers.

The target in the assay is T1, human 4lg B7-H3 (Homo sapiens, UniProt Q5ZPR3).
T1 sequence (Q5ZPR3 29-534): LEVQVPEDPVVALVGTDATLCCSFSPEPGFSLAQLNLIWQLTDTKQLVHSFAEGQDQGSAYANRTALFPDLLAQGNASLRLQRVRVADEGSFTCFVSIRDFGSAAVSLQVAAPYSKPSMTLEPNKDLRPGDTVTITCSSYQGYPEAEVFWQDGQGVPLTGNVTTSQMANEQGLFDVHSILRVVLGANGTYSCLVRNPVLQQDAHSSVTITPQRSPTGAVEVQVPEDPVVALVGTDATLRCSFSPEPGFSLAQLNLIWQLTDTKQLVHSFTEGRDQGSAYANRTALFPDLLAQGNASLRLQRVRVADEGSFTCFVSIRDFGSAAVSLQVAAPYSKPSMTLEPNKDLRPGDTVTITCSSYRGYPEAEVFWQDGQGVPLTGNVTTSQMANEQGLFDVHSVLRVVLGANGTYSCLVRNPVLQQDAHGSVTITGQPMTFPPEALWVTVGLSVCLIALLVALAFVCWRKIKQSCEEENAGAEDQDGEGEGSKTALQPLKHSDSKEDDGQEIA
Nature of the assay: Affinity determination by surface plasmon resonance (SPR) to 4Ig B7-H3. As to conditions: 4Ig B7-H3. Background: SPR reads the build-up and loss of mass on a sensor chip optically.

[1] abbreviates: SPR KD—25° C., 25° C. flow cell temperature.
[2] abbreviates: SPR KD—37° C., 37° C. flow cell temperature.

`CC(=O)N[C@@H](CCC(C)C)C(=O)N[C@@H](Cc1ccc(O)cc1)C(=O)N[C@H]1CSSC[C@@H](C(=O)N[C@@H](Cc2c[nH]c3ccc(F)cc23)C(=O)N[C@@H](Cc2ccccc2)C(=O)N2C[C@H](O)C[C@H]2C(=O)N[C@H](CCCCNC(=O)CN2CCN(CC(=O)O)CCN(CC(=O)O)CCN(CC(=O)O)CC2)C(N)=O)NC(=O)[C@H](Cc2ccc(O)cc2)NC(=O)[C@H](C(C)C)NC(=O)[C@H](CC(=O)O)NC(=O)[C@H](Cc2ccc(O)cc2)NC(=O)[C@H](CCCCN)NC(=O)CNC(=O)[C@H](C(C)C)NC1=O` [compound 161, Ac-hLeu-Y-C-V-G-K-Y-D-V-Y-C-5FW-F-4OHPro-dLys(DOTA)-CONH2] (Ac-[hLeu]YCVGKYDVYC[Trp(5-F)]F[Hyp][dK](DOTA)-NH2; disulfide 3-11): under setting [1], the Kd is 1 to 10 nM.
In turn, `CC(=O)N[C@@H](CCC1CCCCC1)C(=O)N[C@@H](Cc1ccc(O)cc1)C(=O)N[C@H]1CSSC[C@@H](C(=O)N[C@@H](Cc2c[nH]c3ccc(F)cc23)C(=O)N[C@@H](Cc2ccccc2)C(=O)N[C@H](C(=O)N[C@H](C)C(=O)O)C(C)(C)O)NC(=O)[C@H](Cc2ccc(O)cc2)NC(=O)[C@H](C(C)C)NC(=O)[C@H](CC(=O)O)NC(=O)[C@H](CC2CCOCC2)NC(=O)[C@H](CC2CCN(C(=O)CC[C@H](NC(=O)CC[C@H](NC(=O)CN3CCN(CC(=O)O)CCN(CC(=O)O)CCN(CC(=O)O)CC3)C(=O)O)C(=O)O)CC2)NC(=O)CNC(=O)[C@H](C(C)(C)C)NC1=O` [compound 487, Ac-hCha-Y-C-Tbg-G-Pip(gE-gE-DOTA)Ala-ThpA-D-V-Y-C-5FW-F-hydroxyVal-dAla-COOH] (Ac-[hCha]YC[Tle]G[Ala(piperidin-4-yl)]([γGlu-γGlu-DOTA])[Ala(4-THP)]DVYC[Trp(5-F)]F[Val(3-OH)][dA]-OH; disulfide 3-11) displayed a Kd under setting [2] of under 1 nM.
Consider `CC[C@@H](C)[C@@H]1NC(=O)[C@@H](NC(=O)[C@H](Cc2ccc(O)cc2)NC(=O)[C@H](CCC(C)C)NC(C)=O)CSSC[C@@H](C(=O)N[C@@H](Cc2c[nH]c3ccccc23)C(=O)N[C@@H](Cc2ccccc2)C(=O)N[C@H](C(=O)N[C@H](CCCCNC(=O)CN2CCN(CC(=O)O)CCN(CC(=O)O)CCN(CC(=O)O)CC2)C(N)=O)[C@@H](C)O)NC(=O)[C@H](Cc2ccc(O)cc2)NC(=O)[C@H](C(C)C)NC(=O)[C@H](CC(=O)O)NC(=O)[C@H](Cc2ccc(O)cc2)NC(=O)[C@H](CCCCN)NC(=O)CNC1=O` [compound 121, Ac-hLeu-Y-C-allolle-G-K-Y-D-V-Y-C-W-F-Thr-dLys(DOTA)-CONH2] (Ac-[hLeu]YC[aIle]GKYDVYCWFT[dK](DOTA)-NH2; disulfide 3-11), for which the Kd under setting [1] is 1 to 10 nM.
Regarding `CC(C)CC[C@H](NC(=O)COCCNC(=O)CC[C@H](NC(=O)CN1CCN(CC(=O)O)CCN(CC(=O)O)CCN(CC(=O)O)CC1)C(=O)O)C(=O)N[C@@H](Cc1ccc(O)cc1)C(=O)N[C@H]1CSSC[C@@H](C(=O)N[C@@H](Cc2c[nH]c3ccc(F)cc23)C(=O)N[C@@H](Cc2ccccc2)C(=O)N[C@H](C(N)=O)C(C)(C)O)NC(=O)[C@H](Cc2ccc(O)cc2)NC(=O)[C@H](C(C)C)NC(=O)[C@H](CC(=O)O)NC(=O)[C@H](CC2CCOCC2)NC(=O)[C@H](CCCCN)NC(=O)CNC(=O)[C@H](C(C)(C)C)NC1=O` [compound 393, DOTA-gE-AEA-hLeu-Y-C-Tbg-G-K-ThpA-D-V-Y-C-5FW-F-hydroxyVal-CONH2] ({DOTA-γGlu-AEA}-[hLeu]YC[Tle]GK[Ala(4-THP)]DVYC[Trp(5-F)]F[Val(3-OH)]-NH2; disulfide 3-11), the Kd under setting [2] fell in the range of 1 to 10 nM.
In turn, `CC(=O)N[C@@H](CCC(C)C)C(=O)N[C@@H](Cc1ccc(O)cc1)C(=O)N[C@H]1CSSC[C@@H](C(=O)N[C@@H](Cc2cn(C)c3ccccc23)C(=O)N[C@@H](Cc2ccccc2)C(=O)N[C@H](C(=O)N[C@H](CCCCNC(=O)CN2CCN(CC(=O)O)CCN(CC(=O)O)CCN(CC(=O)O)CC2)C(=O)O)C(C)(C)O)NC(=O)[C@H](Cc2ccc(O)cc2)NC(=O)[C@H](C(C)C)NC(=O)[C@H](CC(=O)O)NC(=O)[C@H](CC2CCOCC2)NC(=O)[C@H](CC2CCNCC2)NC(=O)CNC(=O)[C@H](C(C)(C)C)NC1=O` [compound 462, Ac-hLeu-Y-C-Tbg-G-PipAla-ThpA-D-V-Y-C-Trp(Me)-F-hydroxyVal-dLys(DOTA)-COOH] (Ac-[hLeu]YC[Tle]G[Ala(piperidin-4-yl)][Ala(4-THP)]DVYC[Trp(1-Me)]F[Val(3-OH)][dK](DOTA)-OH; disulfide 3-11) returned a Kd under setting [2] of under 1 nM.
Compound `CC(=O)N[C@@H](CCC(C)C)C(=O)N[C@@H](Cc1ccc(O)cc1)C(=O)N[C@H]1CSSC[C@@H](C(=O)N[C@@H](Cc2c[nH]c3ccc(F)cc23)C(=O)N[C@H](C(=O)N[C@H](C(=O)N[C@H](CCCCNC(=O)CN2CCN(CC(=O)O)CCN(CC(=O)O)CCN(CC(=O)O)CC2)C(=O)O)C(C)(C)O)[C@@H](C)c2ccccc2)NC(=O)[C@H](Cc2ccc(NC(N)=O)cc2)NC(=O)[C@H](C(C)C)NC(=O)[C@H](CC(=O)O)NC(=O)[C@H](CC2CCOCC2)NC(=O)[C@H](CC2CCNCC2)NC(=O)CNC(=O)[C@H](C(C)(C)C)NC1=O` [compound 506, Ac-hLeu-Y-C-Tbg-G-PipAla-ThpA-D-V-Aph(Cbm)-C-5FW-[(2S, 3S)beta-Me-Phe]-hydroxyVal-dLys(DOTA)-COOH] (Ac-[hLeu]YC[Tle]G[Ala(piperidin-4-yl)][Ala(4-THP)]DV[Phe(4-NHCONH2)]C[Trp(5-F)][X1][Val(3-OH)][dK](DOTA)-OH; disulfide 3-11) showed a Kd under setting [2] of under 1 nM.
Same read-out and setting: for `CC(=O)N[C@@H](CCC(C)C)C(=O)N[C@@H](Cc1ccc(O)cc1)C(=O)N[C@H]1CSSC[C@@H](C(=O)N[C@@H](Cc2c[nH]c3ccc(F)cc23)C(=O)N[C@@H](Cc2ccccc2)C(=O)N[C@H](C(=O)N[C@H](CCCCNC(=O)CN2CCN(CC(=O)O)CCN(CC(=O)O)CCN(CC(=O)O)CC2)C(=O)O)C(C)(C)O)NC(=O)[C@H](Cc2ccc(O)cc2)NC(=O)[C@H](C(C)C)NC(=O)[C@H](CC(=O)O)NC(=O)[C@H](CC2CCOCC2)NC(=O)[C@H](CCCCNC(=O)CC[C@H](NC(=O)CCCCCCCCCCCCCCC(=O)O)C(=O)O)NC(=O)CNC(=O)[C@H](C(C)(C)C)NC1=O` [compound 405, Ac-hLeu-Y-C-Tbg-G-K(yE-C16OH)-ThpA-D-V-Y-C-5FW-F-hydroxyVal-dLys(DOTA)-COOH] (Ac-[hLeu]YC[Tle]GK([γGlu-C16 diacid])[Ala(4-THP)]DVYC[Trp(5-F)]F[Val(3-OH)][dK](DOTA)-OH; disulfide 3-11) the value was 10 to 100 nM; for `CC(=O)N[C@@H](CCC(C)C)C(=O)N[C@@H](Cc1ccc(O)cc1)C(=O)N[C@H]1CSSC[C@@H](C(=O)N[C@@H](Cc2c[nH]c3ccc(F)cc23)C(=O)N[C@@H](Cc2ccccc2)C(=O)N[C@H](C(=O)N[C@H](CCCCNC(=O)CN2CCN(CC(=O)O)CCN(CC(=O)O)CCN(CC(=O)O)CC2)C(=O)O)C(C)(C)O)NC(=O)[C@H](Cc2ccc(O)cc2)NC(=O)[C@H](C(C)C)NC(=O)[C@H](CC(=O)O)NC(=O)[C@H](CC2CCOCC2)NC(=O)[C@H](CCCCN)NC(=O)CNC(=O)[C@H]([C@@H](C)O)NC1=O` [compound 370, Ac-hLeu-Y-C-Thr-G-K-ThpA-D-V-Y-C-5FW-F-hydroxyVal-dLys(DOTA)-COOH] (Ac-[hLeu]YCTGK[Ala(4-THP)]DVYC[Trp(5-F)]F[Val(3-OH)][dK](DOTA)-OH; disulfide 3-11), 1 to 10 nM.
